The target in experiment [1] is T1, HiBit-BRG1 fusion protein in stable HeLa cell line expressing HiBit-BRG1 and LgBit (Homo sapiens, UniProt P51532).
T1 construct: expressed in transfected cells
Briefly: HiBiT-BRG1 cell-based degradation assay (Nano-Glo HiBiT, 24 h). The note with it: HeLa HiBit-BRG1/LgBit cells; for Dmax: top dose 30 μM, read-out: BRG1 HiBit Degradation Maximum (%); for DC50: read-out: BRMG1 HiBit Degradation IC50. In a few lines: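 Stable HeLa line co-expressing HiBiT-BRG1 and LgBiT, compound-treated 24 h; luminescence read after Nano-Glo HiBiT lytic reagent. % degradation normalised between DMSO (high control) and 2 μM reference BRM/BRG1 degrader (low control).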
For orientation: HiBiT is a short tag that completes a luciferase, so light tracks the accessible tagged protein.

Experiment [2] has as its target T2, HiBiT-BRM fusion protein in stable HeLa cell line (Homo sapiens, UniProt P51531).
T2 construct: expressed in transfected cells
The experiment in a line: HiBiT-BRM cell-based degradation assay (Nano-Glo HiBiT Lytic Detection, 24 h). Set-up: DC50: scale not given here. The note with it: HeLa HiBiT-BRM cells; for DC50: read-out: BRM HiBit Degradation IC50; for BRM HiBit Degradation Maximum (%): top dose 30 μM. Summed up:
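Stable HiBiT-BRM HeLa cells treated 24 h with 10-point 3-fold dilutions, top final dose 30 μM, in duplicate. Luminescence read after lytic LgBiT reagent. Percent degradation was normalised to DMSO (high control) and 2 μM reference BRM/BRG1 degrader (low control).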

T1 sequence (P51532 whole entry, the tested form may be a part): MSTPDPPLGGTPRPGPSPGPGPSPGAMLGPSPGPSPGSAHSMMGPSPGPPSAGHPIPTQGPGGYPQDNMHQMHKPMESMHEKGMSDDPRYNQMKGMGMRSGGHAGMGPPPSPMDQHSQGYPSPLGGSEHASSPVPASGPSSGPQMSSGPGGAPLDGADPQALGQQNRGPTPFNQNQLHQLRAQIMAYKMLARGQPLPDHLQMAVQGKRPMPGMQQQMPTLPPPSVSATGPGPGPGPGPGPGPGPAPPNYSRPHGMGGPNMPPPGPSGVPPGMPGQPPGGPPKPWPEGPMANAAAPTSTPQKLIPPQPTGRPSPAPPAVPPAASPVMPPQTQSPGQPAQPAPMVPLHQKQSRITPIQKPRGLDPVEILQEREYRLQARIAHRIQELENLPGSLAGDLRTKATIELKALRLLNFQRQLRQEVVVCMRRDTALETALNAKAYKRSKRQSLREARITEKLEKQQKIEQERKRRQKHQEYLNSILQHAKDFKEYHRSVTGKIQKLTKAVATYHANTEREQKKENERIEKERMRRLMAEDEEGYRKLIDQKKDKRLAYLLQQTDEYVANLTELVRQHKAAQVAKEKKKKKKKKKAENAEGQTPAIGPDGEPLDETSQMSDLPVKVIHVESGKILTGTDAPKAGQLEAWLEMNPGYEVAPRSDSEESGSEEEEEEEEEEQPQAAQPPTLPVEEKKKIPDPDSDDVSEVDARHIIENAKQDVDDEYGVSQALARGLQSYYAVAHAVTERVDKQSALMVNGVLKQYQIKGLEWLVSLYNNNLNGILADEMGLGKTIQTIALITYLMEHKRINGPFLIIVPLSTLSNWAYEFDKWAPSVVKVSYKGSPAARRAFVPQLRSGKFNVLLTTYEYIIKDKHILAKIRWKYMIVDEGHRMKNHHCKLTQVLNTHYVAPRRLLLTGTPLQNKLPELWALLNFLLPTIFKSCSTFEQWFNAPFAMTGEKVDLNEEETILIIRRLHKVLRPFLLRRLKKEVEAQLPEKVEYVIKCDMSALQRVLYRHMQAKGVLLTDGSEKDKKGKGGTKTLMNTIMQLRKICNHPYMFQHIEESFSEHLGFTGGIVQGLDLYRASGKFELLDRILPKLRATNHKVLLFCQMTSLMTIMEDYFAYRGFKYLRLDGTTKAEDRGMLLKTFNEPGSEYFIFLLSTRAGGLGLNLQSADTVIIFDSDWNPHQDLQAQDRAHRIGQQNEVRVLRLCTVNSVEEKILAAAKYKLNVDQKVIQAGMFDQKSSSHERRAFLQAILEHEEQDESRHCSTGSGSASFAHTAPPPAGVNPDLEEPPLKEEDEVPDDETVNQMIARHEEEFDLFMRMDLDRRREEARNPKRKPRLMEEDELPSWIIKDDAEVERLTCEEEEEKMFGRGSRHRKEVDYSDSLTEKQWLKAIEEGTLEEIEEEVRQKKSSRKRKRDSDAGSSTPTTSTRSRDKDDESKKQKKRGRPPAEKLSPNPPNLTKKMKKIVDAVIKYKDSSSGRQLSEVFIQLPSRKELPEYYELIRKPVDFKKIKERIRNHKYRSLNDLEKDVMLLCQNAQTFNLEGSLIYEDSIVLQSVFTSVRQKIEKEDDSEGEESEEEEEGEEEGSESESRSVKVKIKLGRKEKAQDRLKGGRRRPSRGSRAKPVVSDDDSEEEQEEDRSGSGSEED
T2 sequence (P51531 whole entry, the tested form may be a part): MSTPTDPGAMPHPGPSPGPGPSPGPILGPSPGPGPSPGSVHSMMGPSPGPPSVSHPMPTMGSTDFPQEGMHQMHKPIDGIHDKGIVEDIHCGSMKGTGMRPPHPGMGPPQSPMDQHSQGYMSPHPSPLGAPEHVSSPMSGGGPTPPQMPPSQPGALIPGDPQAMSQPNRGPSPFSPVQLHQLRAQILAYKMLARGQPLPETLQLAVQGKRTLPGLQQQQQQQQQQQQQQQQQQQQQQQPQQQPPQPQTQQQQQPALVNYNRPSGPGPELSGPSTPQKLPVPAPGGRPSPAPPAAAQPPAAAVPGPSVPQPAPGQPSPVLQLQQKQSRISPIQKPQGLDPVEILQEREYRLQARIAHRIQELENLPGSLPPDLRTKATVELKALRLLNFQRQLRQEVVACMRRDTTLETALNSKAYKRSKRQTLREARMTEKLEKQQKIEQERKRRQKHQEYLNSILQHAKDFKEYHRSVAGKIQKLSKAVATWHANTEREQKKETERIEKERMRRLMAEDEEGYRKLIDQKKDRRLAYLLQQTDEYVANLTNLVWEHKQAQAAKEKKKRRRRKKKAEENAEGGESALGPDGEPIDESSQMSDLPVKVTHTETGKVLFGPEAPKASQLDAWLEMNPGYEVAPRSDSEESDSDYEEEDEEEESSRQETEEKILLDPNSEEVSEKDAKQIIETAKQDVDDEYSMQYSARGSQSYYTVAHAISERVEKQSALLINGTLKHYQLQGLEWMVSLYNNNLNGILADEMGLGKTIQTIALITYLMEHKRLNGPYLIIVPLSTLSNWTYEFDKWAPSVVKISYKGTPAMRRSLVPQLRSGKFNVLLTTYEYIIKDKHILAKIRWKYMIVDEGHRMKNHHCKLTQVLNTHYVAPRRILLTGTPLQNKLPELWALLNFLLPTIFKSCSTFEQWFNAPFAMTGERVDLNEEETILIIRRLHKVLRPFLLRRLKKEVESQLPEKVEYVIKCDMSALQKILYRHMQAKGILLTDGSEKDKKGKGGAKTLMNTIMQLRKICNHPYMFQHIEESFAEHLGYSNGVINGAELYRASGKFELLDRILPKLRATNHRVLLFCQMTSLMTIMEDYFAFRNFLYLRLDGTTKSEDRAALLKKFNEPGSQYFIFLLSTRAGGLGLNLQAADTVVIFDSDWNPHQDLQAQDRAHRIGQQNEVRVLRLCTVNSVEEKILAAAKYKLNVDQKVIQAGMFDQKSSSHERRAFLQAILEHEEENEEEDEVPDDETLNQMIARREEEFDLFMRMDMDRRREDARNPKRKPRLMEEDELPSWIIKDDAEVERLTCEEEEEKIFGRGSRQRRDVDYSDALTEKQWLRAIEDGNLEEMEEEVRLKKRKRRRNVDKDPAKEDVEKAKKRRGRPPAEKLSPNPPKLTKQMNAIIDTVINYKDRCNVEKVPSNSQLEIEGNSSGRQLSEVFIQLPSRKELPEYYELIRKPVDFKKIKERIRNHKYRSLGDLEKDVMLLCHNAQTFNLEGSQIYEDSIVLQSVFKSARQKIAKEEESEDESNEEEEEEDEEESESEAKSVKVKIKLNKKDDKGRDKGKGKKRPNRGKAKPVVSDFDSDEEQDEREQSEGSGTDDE

In the case of `Cc1ncsc1-c1ccc([C@H](C)NC(=O)[C@@H]2C[C@@H](O)CN2C(=O)[C@@H](c2ccnc(N3CC4(CN(c5ccc6cc(-c7ccccc7O)nnc6c5)C4)C3)c2)C(C)C)cc1` [Compound 175, (2S,4R)-4-hydroxy-1-[(2R)-2-(2-{6-[3-(2-hydroxyphenyl)cinnolin-7-yl]-2,6-diazaspiro[3.3]heptan-2-yl}pyridin-4-yl)-3-methylbutanoyl]-N-[(1S)-1-[4-(4-methyl-1,3-thiazol-5-yl)phenyl]ethyl]pyrrolidine-2-carboxamide], the Dmax in experiment [1] was < 50%. In addition, in experiment [2], the DC50 was > 0.01 µM and the “BRM HiBit Degradation Maximum (%)” value is given as “A (“A” indicates maximum degradation ≥75%)”.
With `Cc1cc(-c2cc([C@H](C(=O)N3C[C@H](O)C[C@H]3C(=O)N[C@@H](C)c3ccc(-c4scnc4C)cc3)C(C)C)on2)cnc1N1CCC(c2ccc3nnc(-c4ccccc4O)cc3c2)CC1` [Compound 64, (2S,4R)-4-hydroxy-1-((R)-2-(3-(6-(4-(3-(2-hydroxyphenyl)cinnolin-6-yl)piperidin-1-yl)-5-methylpyridin-3-yl)isoxazol-5-yl)-3-methylbutanoyl)-N-((S)-1-(4-(4-methylthiazol-5-yl)phenyl)ethyl)pyrrolidine-2-carboxamide], in experiment [1], the DC50 was > 0.01 µM and the Dmax was > 50%. Moreover, in experiment [2], the DC50 was < 0.01 µM and the “BRM HiBit Degradation Maximum (%)” value was “A (“A” indicates maximum degradation ≥75%)”.
Turning to `Cc1ncsc1-c1ccc([C@H](C)NC(=O)[C@@H]2C[C@@H](O)CN2C(=O)C(C(C)C)n2cc(N3CC4CN(c5ccc6cc(-c7ccccc7O)nnc6c5)CCC43)nn2)cc1` (stereo partly drawn) [Compound 250, (2S,4R)-4-hydroxy-1-(2-(4-(3-(3-(2-hydroxyphenyl)cinnolin-7-yl)-3,7-diazabicyclo[4.2.0]octan-7-yl)-1H-1,2,3-triazol-1-yl)-3-methylbutanoyl)-N-((S)-1-(4-(4-methylthiazol-5-yl)phenyl)ethyl)pyrrolidine-2-carboxamide], in experiment [1], the DC50 was < 0.01 µM and the Dmax was > 75%. For the same molecule, in experiment [2], the DC50 is < 0.01 µM and the “BRM HiBit Degradation Maximum (%)” value is recorded as “A (“A” indicates maximum degradation ≥75%)”.
`Cc1ncsc1-c1ccc([C@H](C)NC(=O)[C@@H]2C[C@@H](O)CN2C(=O)C(c2cc(N3CCC(C4CN(c5ccc6cc(-c7ccccc7O)nnc6c5)C4)CC3)no2)C(C)C)cc1` (stereo partly drawn) [Compound 225, (2S,4R)-4-hydroxy-1-(2-(3-(4-(1-(3-(2-hydroxyphenyl)cinnolin-7-yl)azetidin-3-yl)piperidin-1-yl)isoxazol-5-yl)-3-methylbutanoyl)-N-((S)-1-(4-(4-methylthiazol-5-yl)phenyl)ethyl)pyrrolidine-2-carboxamide]: in experiment [1], the DC50 was > 0.01 µM and the Dmax is > 75%. In addition, in experiment [2], the DC50 was < 0.01 µM and the “BRM HiBit Degradation Maximum (%)” value is recorded as “A (“A” indicates maximum degradation ≥75%)”.
With `Cc1ncsc1-c1ccc([C@H](C)NC(=O)[C@@H]2C[C@@H](O)CN2C(=O)[C@@H](c2cc(N3CC4(C3)CN(c3cc5nnc(-c6ccccc6O)cc5cc3N(C)C)C4)no2)C(C)C)cc1` [Compound 207, (2S,4R)-1-((R)-2-(3-(6-(6-(dimethylamino)-3-(2-hydroxyphenyl)cinnolin-7-yl)-2,6-diazaspiro[3.3]heptan-2-yl)isoxazol-5-yl)-3-methylbutanoyl)-4-hydroxy-N-((S)-1-(4-(4-methylthiazol-5-yl)phenyl)ethyl)pyrrolidine-2-carboxamide], in experiment [1], the DC50 was < 0.01 µM and the Dmax was > 75%. Besides, in experiment [2], the DC50 was < 0.01 µM and the “BRM HiBit Degradation Maximum (%)” value is given as “A (“A” indicates maximum degradation ≥75%)”.
Regarding `Cc1ncsc1-c1ccc([C@H](C)NC(=O)[C@@H]2C[C@@H](O)CN2C(=O)[C@@H](c2cc(N3CCC[C@@H](c4ccc5cc(-c6ccccc6O)nnc5c4)C3)no2)C(C)C)cc1` [Compound 91, (2S,4R)-4-hydroxy-1-((R)-2-(3-((S)-3-(3-(2-hydroxyphenyl)cinnolin-7-yl)piperidin-1-yl)isoxazol-5-yl)-3-methylbutanoyl)-N-((S)-1-(4-(4-methylthiazol-5-yl)phenyl)ethyl)pyrrolidine-2-carboxamide], in experiment [1], the DC50 is < 0.01 µM and the Dmax was > 75%. In experiment [2], the DC50 was < 0.01 µM and the “BRM HiBit Degradation Maximum (%)” value is recorded as “A (“A” indicates maximum degradation ≥75%)”.
Regarding `Cc1ncsc1-c1ccc([C@H](C)NC(=O)[C@@H]2C[C@@H](O)CN2C(=O)[C@H](c2cc(-c3cnc(N4CC5(CC(c6ccc7cc(-c8ccccc8O)nnc7c6)C5)C4)nc3)no2)C(C)C)cc1` [Compound 17], the Dmax in experiment [1] is < 50%. Further, in experiment [2], the DC50 is > 0.01 µM and the “BRM HiBit Degradation Maximum (%)” value is “A (“A” indicates maximum degradation ≥75%)”.
`Cc1ncsc1-c1ccc([C@H](C)NC(=O)[C@@H]2C[C@@H](O)CN2C(=O)[C@@H](c2cc(-c3ccc4nnc(-c5ccccc5O)cc4c3)no2)C(C)C)cc1` [Compound 97, (2S,4R)-4-hydroxy-1-[(2R)-2-{3-[3-(2-hydroxyphenyl)cinnolin-6-yl]-1,2-oxazol-5-yl}-3-methylbutanoyl]-N-[(1S)-1-[4-(4-methyl-1,3-thiazol-5-yl)phenyl]ethyl]pyrrolidine-2-carboxamide]: in experiment [1], the DC50 is < 0.01 µM and the Dmax is > 75%. In experiment [2], the DC50 is < 0.01 µM and the “BRM HiBit Degradation Maximum (%)” value is reported as “A (“A” indicates maximum degradation ≥75%)”.
For `Cc1ncsc1-c1ccc([C@H](C)NC(=O)[C@@H]2C[C@@H](O)CN2C(=O)[C@@H](c2cc(-c3cnc(N4CC(c5ccc6nnc(-c7ccccc7O)cc6c5)C4)nc3)no2)C(C)C)cc1` [Compound 4, (2S,4R)-4-hydroxy-1-[(2R)-2-[3-(2-{3-[3-(2-hydroxyphenyl)cinnolin-6-yl]azetidin-1-yl}pyrimidin-5-yl)-1,2-oxazol-5-yl]-3-methylbutanoyl]-N-[(1S)-1-[4-(4-methyl-1,3-thiazol-5-yl)phenyl]ethyl]pyrrolidine-2-carboxamide], in experiment [1], the DC50 is > 0.01 µM and the Dmax was > 75%. Besides, in experiment [2], the DC50 was < 0.01 µM and the “BRM HiBit Degradation Maximum (%)” value is recorded as “A (“A” indicates maximum degradation ≥75%)”.
In the case of `Cc1ncsc1-c1ccc([C@H](C)NC(=O)[C@@H]2C[C@@H](O)CN2C(=O)[C@@H](c2cc(-c3cnc(N4CC(c5cc6cc(-c7ccccc7O)nnc6cc5C5CC5)C4)nc3)no2)C(C)C)cc1` [Compound 79, (2S,4R)-1-((R)-2-(3-(2-(3-(7-cyclopropyl-3-(2-hydroxyphenyl)cinnolin-6-yl)azetidin-1-yl)pyrimidin-5-yl)isoxazol-5-yl)-3-methylbutanoyl)-4-hydroxy-N-((S)-1-(4-(4-methylthiazol-5-yl)phenyl)ethyl)pyrrolidine-2-carboxamide], in experiment [1], the DC50 was < 0.01 µM and the Dmax was > 75%. Also, in experiment [2], the DC50 was < 0.01 µM and the “BRM HiBit Degradation Maximum (%)” value is reported as “A (“A” indicates maximum degradation ≥75%)”.
On to `Cc1ncsc1-c1ccc([C@H](C)NC(=O)[C@@H]2C[C@@H](O)CN2C(=O)[C@@H](c2cc(N3CCOC4(CCN(c5ccc6cc(-c7ccccc7O)nnc6c5)CC4)C3)no2)C(C)C)cc1` [Compound 148, (2S,4R)-4-hydroxy-1-((R)-2-(3-(9-(3-(2-hydroxyphenyl)cinnolin-7-yl)-1-oxa-4,9-diazaspiro [5.5]undecan-4-yl)isoxazol-5-yl)-3-methylbutanoyl)-N-((S)-1-(4-(4-methylthiazol-5-yl)phenyl)ethyl)pyrrolidine-2-carboxamide], for which, in experiment [1], the DC50 is < 0.01 µM and the Dmax is > 75%. Besides, in experiment [2], the DC50 was < 0.01 µM and the “BRM HiBit Degradation Maximum (%)” value is on record as “A (“A” indicates maximum degradation ≥75%)”.
As for `COc1cc2nnc(-c3ccccc3O)cc2cc1C1CN(c2ncc(-c3cc([C@H](C(=O)N4C[C@H](O)C[C@H]4C(=O)N[C@@H](C)c4ccc(-c5scnc5C)cc4)C(C)C)on3)cn2)C1` [Compound 24], in experiment [1], the DC50 is < 0.01 µM and the Dmax is > 75%. For the same molecule, in experiment [2], the DC50 is < 0.01 µM and the “BRM HiBit Degradation Maximum (%)” value is given as “A (“A” indicates maximum degradation ≥75%)”.
For the molecule `Cc1ncsc1-c1ccc(C(C)NC(=O)C2CC(O)CN2C(=O)[C@@H](c2cc(N3CCN([C@H]4CCN(Cc5cc6nnc(-c7ccccc7O)cc6cc5Cl)CC4(F)F)CC3)no2)C(C)C)cc1` (stereo in doubt) [Compound 216, (2R,4S)-1-((R)-2-(3-(4-((S)-1-((6-chloro-3-(2-hydroxyphenyl)cinnolin-7-yl)methyl)-3,3-difluoropiperidin-4-yl)piperazin-1-yl)isoxazol-5-yl)-3-methylbutanoyl)-4-hydroxy-N-((R)-1-(4-(4-methylthiazol-5-yl)phenyl)ethyl)pyrrolidine-2-carboxamide], in experiment [1], the Dmax was < 50%. In experiment [2], the DC50 was > 0.01 µM and the “BRM HiBit Degradation Maximum (%)” value is on record as “A (“A” indicates maximum degradation ≥75%)”.
Regarding `Cc1ncsc1-c1ccc([C@H](C)NC(=O)[C@H]2C[C@H](O)CN2C(=O)C(c2cc(N3C[C@@H]4C[C@H]3CN4c3ccc4cc(-c5ccccc5O)nnc4c3)no2)C(C)C)cc1` (stereo partly drawn) [Compound 224, (2R,4S)-4-hydroxy-1-(2-(3-((1S,4S)-5-(3-(2-hydroxyphenyl)cinnolin-7-yl)-2,5-diazabicyclo[2.2.1]heptan-2-yl)isoxazol-5-yl)-3-methylbutanoyl)-N-((S)-1-(4-(4-methylthiazol-5-yl)phenyl)ethyl)pyrrolidine-2-carboxamide], in experiment [1], the DC50 was > 0.01 µM and the Dmax was > 75%. For the same molecule, in experiment [2], the DC50 was < 0.01 µM and the “BRM HiBit Degradation Maximum (%)” value is given as “A (“A” indicates maximum degradation ≥75%)”.
